Assay results published in US11649238B2, “Substituted pyrazolo[1,5-a]pyrimidines as PI4K inhibitors” (GLAXOSMITHKLINE INTELLECTUAL PROPERTY DEVELOPMENT LIMITED, priority 2018, dated 2023).

Legend:
[1] = system: human rhinovirus Type A Strain 16 (HRVA16) in HeLa Ohio cells; assay: Cytopathic Effect (CPE) Assay, ATP-depletion in infected HeLa Ohio cells; assay type: cell-based; details: Human rhinovirus sp., HRVA16, HeLa, 48 h, HRVA16 at MOI of 1, 33° C. for 2 days, CellTiter-Glo, read-out: mean pIC50 (converted)
Method: c) Cytopathic Effect (CPE) Assay Protocol
The in vitro inhibition of PI4 KB activity was determined by analysis of the inhibition of ATP-depletion in HeLa Ohio cells in response to infection with human rhinovirus Type A Strain 16 (HRVA16). ATP levels were determined using CellTiter-GLO reagent from Promega. Compounds that inhibit PI4 KB are also potent inhibitors of human rhinoviruses and are able to protect HeLa Ohio cells from CPE induced by viral infection and replication. Protected cells remain viable following viral infection and therefore have greater ATP levels.
Compounds were dissolved in 100% DMSO to a concentration of 3 mM and subsequent dilutions were prepared in 100% DMSO using a 1:3 serial step dilution. A 0.5 μL stamp from an 10-point titration was transferred to a white 96 well Greiner tissue culture flat bottom plate (655083). A 0.5 μL stamp of 100% DMSO was stamped into columns 11 and 12 of the plate, ensuring a final assay DMSO concentration of 0.33% across the plate and a compound top final assay concentration of 10 μM.
HeLa Ohio cells were cultured at 37° C., 5% CO2 in media (DMEM supplemented with 10% Australian origin foetal bovine serum and 2 mM glutamax). Cells were passaged when confluency reached >80%. For the assay, cells were grown to 80-90% confluency before detachment.
Cells were detached for the assay by washing with PBS and detached using 3 mL TrypLE Express for […] at 37° C. Detached cells were mixed with 7 mL of media and centrifuged at 300 g for 5 min. The cell pellet was resuspended in 50 mL media and counted on a Beckman Coulter ViCell. Cells were diluted to 6.6×10^4 cells/mL and some of the cell volume was removed into a new tube to be used as a column 12 control. HRVA16 stock was added to the remaining cell suspension at the appropriate dilution for the virus stock to achieve an MOI of 1.
150 μL of the cell+virus suspension was added per well to columns 1-11 using a Multidrop Combi. 150 μL of the separate cell suspension was added per well to columns 12 using a multichannel pipette. Assay plates were sealed and incubated at 33° C., 5% CO2 for 2 days. After 2 days, assay plates were removed from the incubator and allowed to equilibrate to room temperature. 60 μL of CellTiter-Glo reagent was added to all wells using a Thermo Scientific Multidrop Combi. Plates were incubated at room temperature for 20 min before reading on an a Perkin Elmer Envision (Settings: Gripper height 2.5, Fixed measurement height (mm) 6.5, Distance between plate and detector 0, Measurement time (s) 0.1, Glow (ct2) correction factor (0%)).
The inhibitory effect of the compounds on the PI4 KB activity was evaluated by the IC50 of the response relative to the high (no virus, column 12) and low (virus+no inhibitor, column 11) controls by fitting to a four parameter dose response equation.

[2] = target: T1, human PI4KIII-beta 13-828 (D316-330) (Homo sapiens, UniProt Q9UBF8); assay: PI4 KB Activity Assay (ADP-GLO Kinase assay); assay type: biochemical; details: 1 mM ATP, 60 μM phosphatidylinositol, 3 hours at room temperature; read-out: mean pIC50 (converted)
T1 construct: human PI4KIII-beta 13-828 (D316-330)
T1 sequence (Q9UBF8 1-801 isoform Q9UBF8-2): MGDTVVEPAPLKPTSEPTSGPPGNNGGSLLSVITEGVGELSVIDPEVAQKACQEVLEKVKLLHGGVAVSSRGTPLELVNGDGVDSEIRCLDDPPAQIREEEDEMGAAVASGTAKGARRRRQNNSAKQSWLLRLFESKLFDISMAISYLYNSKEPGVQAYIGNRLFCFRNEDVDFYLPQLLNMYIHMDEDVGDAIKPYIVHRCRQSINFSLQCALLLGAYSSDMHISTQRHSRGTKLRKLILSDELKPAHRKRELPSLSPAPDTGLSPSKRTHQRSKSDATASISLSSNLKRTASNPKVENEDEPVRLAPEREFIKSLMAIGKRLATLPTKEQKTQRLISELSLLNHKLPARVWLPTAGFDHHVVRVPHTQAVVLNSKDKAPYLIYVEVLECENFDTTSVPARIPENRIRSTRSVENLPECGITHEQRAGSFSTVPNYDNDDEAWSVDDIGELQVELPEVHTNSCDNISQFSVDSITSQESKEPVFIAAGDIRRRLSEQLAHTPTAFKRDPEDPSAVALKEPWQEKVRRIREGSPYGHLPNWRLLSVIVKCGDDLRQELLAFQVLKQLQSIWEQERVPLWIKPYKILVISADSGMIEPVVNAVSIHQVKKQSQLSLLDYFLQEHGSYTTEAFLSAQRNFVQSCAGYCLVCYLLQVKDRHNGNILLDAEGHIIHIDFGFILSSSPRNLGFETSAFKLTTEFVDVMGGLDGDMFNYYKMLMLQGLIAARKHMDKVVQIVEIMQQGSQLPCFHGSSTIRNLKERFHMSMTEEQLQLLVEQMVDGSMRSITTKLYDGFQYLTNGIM
Method: The in vitro inhibition of human PI4KIII-beta 13-828 (D316-330) activity was determined by using the ADP-GLO Kinase assay kit from Promega. Inhibitors were dissolved in 100% DMSO at a concentration of 1 mM. Dilutions were prepared in 100% DMSO using a 1 in 3 serial step dilution. A 60 nL stamp from an 11-point titration was transferred to a white low volume 384 well Greiner assay plate ensuring a final DMSO concentration of 1% across the plate and a top final concentration of inhibitor of 10 μM. The PI4KIII-beta assay contained 25 mM Hepes pH 7.5 (NaOH), 10 mM MgCl2, 0.5 mM EGTA, 0.1% Triton X-100, 2 mM TCEP, and 0.1 mg/ml BSA, 1 mM ATP, 60 μM phosphatidylinositol, and 1.5 nM human PI4K-beta 13-828 (D316-330) in a total volume of 6 μL. The assay was initiated with the addition of enzyme, covered, and incubated at room temperature for 3 hours. The assays were stopped with the addition of 6 μl ADP-GLO Reagent containing 0.1% CHAPS to deplete the unconsumed ATP. The plates were incubated at room temperature for 60 min and then 12 μl of the Kinase Detection Reagent containing 0.1% CHAPS was added to convert ADP to ATP and introduce luciferase and luciferin. After 40 min incubation at room temperature the luminescent signal was read on a BMG Labtech PHERAstar FS with the following settings; Gain 3600, Focal height 13.7 mm, measurement interval time 1 s, Settling time 0.2 s. The inhibitory effect of the PI4K-beta activity of the compounds was evaluated by the IC50 of the response relative to the high, no compound, and low, no enzyme, controls by fitting to the four parameter dose response question.

[3] = Spleen Concentration Assay; assay type: in vivo; details: male, Wistar Han, rat, intravenous, 1 mg/kg, intravenous infusion 1 mg/kg over 1 h, single male Wistar Han rat, 12 hours after the start of dosing
Method: e) Spleen Concentration Assay Compounds 17, 18, 19, 22 and 23 were tested in this spleen accumulation assay. Compounds were administered intravenously to rats to determine what the level of the compound in the spleen would be if all of the inhaled dose was absorbed (either orally or through the lungs) and systemic circulation was exposed to the full dose. Compounds 17, 19, 22 and 23 were formulated in 2% DMSO in Kleptose (aq, 10% w/v). Compound 18 was formulated in a 5:45:50 ratio of DMSO:PEG200:water. Formulations were administered as intravenous infusions (1 mg/kg over 1 h) to a single male, Wistar Han rat. 12 hours after the start of dosing, rats were euthanised and spleens were collected. Approximately 0.5 g samples of spleen were taken and homogenised in 4 mL water. 100 μL of the resulting homogenates were prepared by protein precipitation with 300 μL of acetonitrile containing an internal standard and assayed (along with calibration standards prepared in the same manner) by reversed-phase liquid chromatography-mass spectrometry, using a heated electrospray source and operated in the positive ion multiple reaction monitoring mode. The liquid chromatography column used was a Waters Cortecs C18 2.7 μm particle size, 50×2.1 mm column at 60° C., and the mobile phase, operated as a gradient, utilised (A) 0.1% formic acid (aq) and (B) 0.1% formic acid in acetonitrile, operated at a flow rate of 1 mL/min.

SMILES	IC50 [1] [nM]	IC50 [2] [nM]	concentration at 12 h [3] [ng/g]
Cc1ccc(-c2c(C)nn3c(NCc4cccc(-c5nccn5C)c4)cc(C(C)O)nc23)cc1C(=O)N(C)CCCO (stereo not drawn) [Compound 13]	≤ 25.1		
COc1ccc(-c2c(C)nn3c(NCc4cccc(-c5nccn5C)c4)cc(C(C)(C)O)nc23)cc1C(=O)N(C)CCCO [Compound 32, 5-(5-(2-hydroxypropan-2-yl)-2-methyl-7-((3-(1-methyl-1H-imidazol-2-yl)benzyl)amino)pyrazolo[1,5-a]pyrimidin-3-yl)-N-(3-hydroxypropyl)-2-methoxy-N-methylbenzamide]	≤ 25.1	≤ 3.98	
COc1ccc(-c2c(C)nn3c(NCc4cccc(-c5nccn5C)c4)cc(C(C)(C)O)nc23)cc1C(=O)N(C)CCO [Compound 26]	≤ 25.1	≤ 3.98	
Cc1nn2c(NCc3cccc(-c4nccn4C)c3)cc(C(C)(C)O)nc2c1-c1cccc(C(=O)N(C)CCCO)c1 [Compound 87, 3-(5-(2-Hydroxypropan-2-yl)-2-methyl-7-((3-(1-methyl-1H-imidazol-2-yl)benzyl)amino)pyrazolo[1,5-a]pyrimidin-3-yl)-N-(3-hydroxypropyl)-N-methylbenzamide]	≤ 25.1	≤ 3.98	
COc1ccc(-c2c(C)nn3c(NCc4cccc(-c5nccn5C)c4)cc(C(C)O)nc23)cc1S(=O)(=O)CCO (stereo not drawn) [Compound 2, 2-((5-(5-(1-Hydroxyethyl)-2-methyl-7-((3-(1-methyl-1H-imidazol-2-yl)benzyl)amino)pyrazolo[1,5-a]pyrimidin-3-yl)-2-methoxyphenyl)sulfonyl)ethan-1-ol]	≤ 25.1	≤ 3.98	
COc1ccc(-c2c(C)nn3c(NCc4cccc(-c5nccn5C)c4)cc(C(C)(C)O)nc23)cc1C(=O)N(C)C [Compound 23]		≤ 3.98	< 7
COc1ccc(-c2c(C)nn3c(NCc4cccc(-c5nccn5C)c4)cc(C(C)(C)O)nc23)cc1C(=O)N1CCC(C)(O)C1 (stereo not drawn) [Compound 27]	≤ 25.1	≤ 3.98	
COc1ccc(-c2c(C)nn3c(NCc4cccc(-c5nccn5C)c4)cc(C(C)(C)O)nc23)cc1C(=O)N1CC[C@H](O)C1 [Compound 8, (S)-(5-(5-(2-Hydroxypropan-2-yl)-2-methyl-7-((3-(1-methyl-1H-imidazol-2-yl)benzyl)amino)pyrazolo[1,5-a]pyrimidin-3-yl)-2-methoxyphenyl)(3-hydroxypyrrolidin-1-yl)methanone]	≤ 25.1		
COc1ccc(-c2c(C)nn3c(NCc4cccc(-c5nccn5C)c4)cc(C(C)O)nc23)cc1S(=O)(=O)CCO (single isomer, unassigned) [Compound 71, 2-((5-(5-(1-Hydroxyethyl)-2-methyl-7-((3-(1-methyl-1H-imidazol-2-yl)benzyl)amino)pyrazolo[1,5-a]pyrimidin-3-yl)-2-methoxyphenyl)sulfonyl)ethan-1-ol]	≤ 25.1	≤ 3.98	
Cc1ccc(-c2c(C)nn3c(NCc4cccc(-c5nccn5C)c4)cc(C(C)(C)O)nc23)cc1C(=O)NCCCO [Compound 60]	≤ 25.1	≤ 3.98	
COc1ccc(-c2c(C)nn3c(NCc4cccc(-c5nccn5C)c4)cc(C(C)(C)O)nc23)cc1C(=O)N1CCOC[C@@H]1C [Compound 30]	≤ 25.1		
Cc1ccc(-c2c(C)nn3c(NCc4cccc(-c5nccn5C)c4)cc(C(C)CO)nc23)cc1C(=O)N(C)CCCO (stereo not drawn) [Compound 54, 5-(5-(1-Hydroxypropan-2-yl)-2-methyl-7-((3-(1-methyl-1H-imidazol-2-yl)benzyl)amino)pyrazolo[1,5-a]pyrimidin-3-yl)-N-(3-hydroxypropyl)-N,2-dimethylbenzamide]	≤ 25.1	≤ 3.98	
CCC(O)c1cc(NCc2cccc(-c3nccn3C)c2)n2nc(C)c(-c3ccc(OC)c(C(=O)N(C)C4CCOCC4)c3)c2n1 (single isomer, unassigned) [Compound 77, 5-(5-(1-Hydroxypropyl)-2-methyl-7-((3-(1-methyl-1H-imidazol-2-yl)benzyl)amino)pyrazolo[1,5-a]pyrimidin-3-yl)-2-methoxy-N-methyl-N-(tetrahydro-2H-pyran-4-yl)benzamide]	≤ 25.1	≤ 3.98	
COc1ccc(-c2c(C)nn3c(NCc4cccc(-c5nccn5C)c4)cc(C(C)(C)O)nc23)cc1C(=O)N1CCCOCC1 [Compound 28]	≤ 25.1	≤ 3.98	
Cc1ccc(-c2c(C)nn3c(NCc4cccc(-c5nccn5C)c4)cc(C4(O)CC4)nc23)cc1C(=O)N(C)CCCO [Compound 79, 5-(5-(1-Hydroxycyclopropyl)-2-methyl-7-((3-(1-methyl-1H-imidazol-2-yl)benzyl)amino)pyrazolo[1,5-a]pyrimidin-3-yl)-N-(3-hydroxypropyl)-N,2-dimethylbenzamide]	≤ 25.1	≤ 3.98	
COc1ccc(-c2c(C)nn3c(NCc4cccc(-c5nccn5C)c4)cc(C(O)C4CC4)nc23)cc1S(=O)(=O)CCO (stereo not drawn) [Compound 4]	≤ 25.1	≤ 3.98	
CCN(CCO)C(=O)c1cc(-c2c(C)nn3c(NCc4cccc(-c5nccn5C)c4)cc(C(C)(C)O)nc23)ccc1C [Compound 38, N-ethyl-N-(2-hydroxyethyl)-5-(5-(2-hydroxypropan-2-yl)-2-methyl-7-((3-(1-methyl-1H-imidazol-2-yl)benzyl)amino)pyrazolo[1,5-a]pyrimidin-3-yl)-2-methylbenzamide]	≤ 25.1	≤ 3.98	
COc1ccc(-c2c(C)nn3c(NCc4cccc(-c5nccn5C)c4)cc(CC4CCOCC4)nc23)cc1S(=O)(=O)CCO [Compound 85, 2-((2-Methoxy-5-(2-methyl-7-((3-(1-methyl-1H-imidazol-2-yl)benzyl)amino)-5-((tetrahydro-2H-pyran-4-yl)methyl)pyrazolo[1,5-a]pyrimidin-3-yl)phenyl)sulfonyl)ethan-1-ol]	≤ 25.1	≤ 3.98	
